Tested on: P12-Ichikawa
Assay: cell viability relative to DMSO control; higher = less cytotoxic
Conditions: 48 h
Summary of the method: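 In 1536-well plates, 5 μl of leukemia cells were seeded per well: 500 cells/well for NOMO1 or SEM and 1000 cells/well for P12-Ichikawa. Each line had first been adapted for at least four passages in each medium. Library compounds in DMSO were pin-dosed at 11 threefold concentrations between 47 μM and 0.79 nM, and CellTiter-Glo One luminescence was read after 48 h at 37°C. Viability is a per-plate percentage relative to DMSO wells, with cell-free wells as background.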

[1] = HPLM + 10% dialyzed FBS, 0.000781 µM
[2] = HPLM + 10% dialyzed FBS, 0.00234 µM
[3] = HPLM + 10% dialyzed FBS, 0.00702 µM
[4] = HPLM + 10% dialyzed FBS, 0.0211 µM
[5] = HPLM + 10% dialyzed FBS, 0.0632 µM
[6] = HPLM + 10% dialyzed FBS, 0.19 µM
[7] = HPLM + 10% dialyzed FBS, 0.569 µM
[8] = HPLM + 10% dialyzed FBS, 1.71 µM
[9] = HPLM + 10% dialyzed FBS, 5.12 µM
[10] = HPLM + 10% dialyzed FBS, 15.4 µM
[11] = HPLM + 10% dialyzed FBS, 46.1 µM
[12] = RPMI 5 mM glucose + 10% FBS, 0.000781 µM
[13] = RPMI 5 mM glucose + 10% FBS, 0.00234 µM
[14] = RPMI 5 mM glucose + 10% FBS, 0.00702 µM
[15] = RPMI 5 mM glucose + 10% FBS, 0.0211 µM
[16] = RPMI 5 mM glucose + 10% FBS, 0.0632 µM
[17] = RPMI 5 mM glucose + 10% FBS, 0.19 µM
[18] = RPMI 5 mM glucose + 10% FBS, 0.569 µM
[19] = RPMI 5 mM glucose + 10% FBS, 1.71 µM
[20] = RPMI 5 mM glucose + 10% FBS, 5.12 µM
[21] = RPMI 5 mM glucose + 10% FBS, 15.4 µM
[22] = RPMI 5 mM glucose + 10% FBS, 46.1 µM
[23] = RPMI 5 mM glucose + 10% dialyzed FBS, 0.000781 µM
[24] = RPMI 5 mM glucose + 10% dialyzed FBS, 0.00234 µM
[25] = RPMI 5 mM glucose + 10% dialyzed FBS, 0.00702 µM
[26] = RPMI 5 mM glucose + 10% dialyzed FBS, 0.0211 µM
[27] = RPMI 5 mM glucose + 10% dialyzed FBS, 0.0632 µM
[28] = RPMI 5 mM glucose + 10% dialyzed FBS, 0.19 µM
[29] = RPMI 5 mM glucose + 10% dialyzed FBS, 0.569 µM
[30] = RPMI 5 mM glucose + 10% dialyzed FBS, 1.71 µM
[31] = RPMI 5 mM glucose + 10% dialyzed FBS, 5.12 µM
[32] = RPMI 5 mM glucose + 10% dialyzed FBS, 15.4 µM
[33] = RPMI 5 mM glucose + 10% dialyzed FBS, 46.1 µM

SMILES | cell viability [1] [%] | cell viability [2] [%] | cell viability [3] [%] | cell viability [4] [%] | cell viability [5] [%] | cell viability [6] [%] | cell viability [7] [%] | cell viability [8] [%] | cell viability [9] [%] | cell viability [10] [%] | cell viability [11] [%] | cell viability [12] [%] | cell viability [13] [%] | cell viability [14] [%] | cell viability [15] [%] | cell viability [16] [%] | cell viability [17] [%] | cell viability [18] [%] | cell viability [19] [%] | cell viability [20] [%] | cell viability [21] [%] | cell viability [22] [%] | cell viability [23] [%] | cell viability [24] [%] | cell viability [25] [%] | cell viability [26] [%] | cell viability [27] [%] | cell viability [28] [%] | cell viability [29] [%] | cell viability [30] [%] | cell viability [31] [%] | cell viability [32] [%] | cell viability [33] [%]
CC(=O)Nc1ccc([C@H](C)C(=O)Nc2ncc(C(C)C)s2)cc1 | 97.9 | 101 | 94.5 | 98.4 | 100 | 92.1 | 96.7 | 94.4 | 89.9 | 24.6 | 5.24 | 95.6 | 96.9 | 101 | 95.1 | 93.3 | 93.8 | 97.6 | 107 | 101 | 26 | 6.22 | 99.3 | 89.5 | 97.2 | 99.5 | 110 | 101 | 99.4 | 99.7 | 83.7 | 22.8 | 5.31
CCOC(=O)N1CCN(/[N+]([O-])=N/Oc2ccc([N+](=O)[O-])cc2[N+](=O)[O-])CC1 | 93.7 | 94.7 | 96 | 97.1 | 98.2 | 102 | 101 | 97 | 95.5 | 96.9 | 27.1 | 91.6 | 96.5 | 88 | 90.6 | 102 | 99.2 | 99.8 | 97.1 | 84.3 | 78.7 | 19.9 | 92 | 83.9 | 87.7 | 88.3 | 88.4 | 86.4 | 90.1 | 85.9 | 82.8 | 82.8 | 18.8
Oc1ccc(/C=C/c2cc(O)cc(O)c2)cc1 | 111 | 110 | 110 | 114 | 105 | 111 | 115 | 103 | 105 | 108 | 41.4 | 116 | 118 | 116 | 118 | 118 | 112 | 117 | 106 | 111 | 101 | 58.6 | 108 | 111 | 111 | 112 | 113 | 116 | 121 | 108 | 103 | 84.5 | 36.9
Cc1cc(Nc2nc(N[C@@H](C)c3ncc(F)cn3)ncc2Cl)n[nH]1 | 95.1 | 111 | 109 | 114 | 116 | 119 | 126 | 108 | 70.6 | 55 | 56.9 | 113 | 122 | 116 | 126 | 112 | 112 | 118 | 118 | 115 | 98 | 42.5 | 109 | 110 | 119 | 117 | 121 | 119 | 109 | 118 | 90.8 | 50.6 | 45.2
NC(=O)c1ncn([C@@H]2O[C@H](CO)[C@@H](O)[C@H]2O)n1 | 122 | 120 | 102 | 109 | 110 | 118 | 116 | 111 | 96.3 | 82 | 76.1 | 116 | 121 | 115 | 123 | 122 | 103 | 112 | 104 | 88.3 | 79.4 | 62.8 | 115 | 107 | 123 | 115 | 120 | 100 | 106 | 105 | 82.4 | 69.3 | 62.5
Oc1ccc(C2CCN(c3ccnc4ccccc34)CC2)cc1O | 102 | 118 | 111 | 113 | 112 | 117 | 110 | 106 | 70.8 | 67.4 | 63.4 | 112 | 110 | 109 | 125 | 122 | 107 | 113 | 110 | 71.5 | 55.1 | 48.5 | 96.5 | 113 | 106 | 110 | 107 | 112 | 111 | 97.5 | 59.2 | 45.8 | 40.8
CC[C@H]1/C=C\C=C/C[C@@H](C)[C@H](O)[C@@](C)(O)C(=O)[C@@H](C)[C@H](O)[C@@H](C)C(=O)[C@@H](C)[C@H](O)[C@@H](C)/C=C/C(=O)O[C@@H]2[C@H](C)[C@H](CC1)O[C@]1(CC[C@H](C)[C@H](C[C@@H](C)O)O1)[C@H]2C | 91.4 | 102 | 98.8 | 102 | 89.5 | 107 | 109 | 67.4 | 57.1 | 41.4 | 4.23 | 90.5 | 96.7 | 75 | 110 | 94.1 | 109 | 108 | 64.4 | 58.9 | 53.7 | 5.47 | 84.9 | 102 | 92.7 | 89.9 | 101 | 99.8 | 92.2 | 59.1 | 45.9 | 41.8 | 5.21
C=CC1=C(C(=O)O)N2C(=O)[C@@H](NC(=O)/C(=N\O)c3csc(N)n3)[C@H]2SC1 | 100 | 115 | 79.3 | 116 | 131 | 122 | 121 | 117 | 125 | 35.2 | 123 | 101 | 112 | 66.1 | 116 | 117 | 123 | 124 | 115 | 119 | 124 | 109 | 99.2 | 118 | 75.5 | 112 | 124 | 117 | 117 | 129 | 115 | 123 | 125
C[C@@H](O)[C@@H]1[C@H]2[C@@H](C)\C(=C(/N2C1=O)C(=O)OCOC(=O)C(C)(C)C)SC3CN(C3)/C4=N/CCS4 | 95.2 | 107 | 110 | 111 | 112 | 108 | 111 | 112 | 112 | 116 | 109 | 78.9 | 102 | 108 | 100 | 109 | 104 | 107 | 111 | 107 | 111 | 103 | 97.3 | 106 | 109 | 118 | 107 | 108 | 109 | 102 | 111 | 111 | 111
COC[C@@H](NC(C)=O)C(=O)NCc1ccccc1 | 117 | 101 | 107 | 118 | 118 | 110 | 110 | 111 | 113 | 104 | 12.8 | 94.8 | 100 | 112 | 112 | 113 | 121 | 111 | 110 | 106 | 110 | 53.5 | 105 | 118 | 106 | 110 | 96.9 | 109 | 108 | 116 | 104 | 109 | 59.8
CC1(C)CCC(=C(CN2CCN(CC2)C3=CC=C(C=C3)C(=O)N[S+]([O-])(=O)C4=CC(=C(N[C@H](CCN5CCOCC5)CSC6=CC=CC=C6)C=C4)[S+]([O-])(=O)C(F)(F)F)\C1)/C7=CC=C(Cl)C=C7 | 116 | 120 | 121 | 122 | 92.5 | 40.9 | 20 | 6.68 | 7.29 | 7.3 | 4.74 | – | – | – | – | – | – | – | – | – | – | – | 120 | 124 | 127 | 122 | 109 | 73.4 | 39.1 | 7.42 | 7.07 | 6.25 | 4.69
Cc1cccc(-c2nn(C(=S)Nc3ccccc3)cc2-c2ccnc3ccccc23)n1 | 115 | 122 | 120 | 117 | 117 | 109 | 113 | 101 | 109 | 86.3 | 78.3 | 115 | 123 | 113 | 124 | 109 | 117 | 111 | 100 | 108 | 91.4 | 74.3 | 121 | 109 | 122 | 114 | 118 | 110 | 119 | 108 | 98.9 | 49 | 73.1
CCC(=O)OCC(=O)[C@@]1(OC(=O)CC)[C@@H](C)C[C@H]2[C@@H]3CCC4=CC(=O)C=C[C@]4(C)[C@@]3(F)[C@@H](O)C[C@@]21C | 107 | 110 | 111 | 107 | 111 | 96.4 | 80.1 | 65.9 | 64.3 | 12.3 | 6.01 | 106 | 111 | 121 | 108 | 102 | 89.9 | 73.4 | 68.6 | 56 | 6.2 | 6.14 | 101 | 111 | 107 | 94.8 | 90.3 | 76.2 | 67.6 | 54.6 | 52.2 | 5.68 | 4.77
O=C(O)c1ccc(-n2nc(-c3ccccc3O)nc2-c2ccccc2O)cc1 | 96.8 | 114 | 104 | 107 | 104 | 108 | 108 | 99.9 | 82 | 70 | 48.9 | 82.8 | 94.8 | 107 | 99.8 | 102 | 104 | 101 | 104 | 73.3 | 53.3 | 29.3 | 86.7 | 103 | 105 | 96.2 | 95.5 | 102 | 102 | 96.7 | 79.7 | 55.7 | 22.2
O=C(NC[C@H](O)CN1CCc2ccccc2C1)c1cc(NC2COC2)ncn1 | 84.8 | 87.8 | 87.5 | 86.8 | 85.4 | 86.1 | 83.6 | 78.9 | 80 | 80.6 | 71.1 | 74 | 83.2 | 80 | 85.9 | 86.2 | 84.8 | 77.3 | 74 | 70.4 | 76.4 | 59.3 | 80.6 | 88.6 | 84.6 | 87.9 | 88.1 | 86.9 | 77.6 | 79.1 | 78.7 | 72 | 66.3

From the supplement of paper PMC11451515
